What was measured:
[1] = parameters: species or system male Sprague Dawley rats; settings: rat, in vivo
Method: To prepare the combination product, LNG and LNG-b suspensions were added to Cabotegravir suspensions at 500 mg/mL to achieve a final Cabotegravir concentration of approximately 200 mg/mL and a final LNG and LNGb concentration of […], using a solution of 2.0% Mannitol in water to adjust the final concentrations to target. Concentrations of P338 and PEG3350 were at 4.5%. The resulting suspensions were flushed with nitrogen, stoppered (FM457 stopper), and sealed. The suspensions were terminally sterilized by gamma irradiation at a minimum dose of 25 kGy.
The pharmacokinetics of co-suspensions of Cabotegravir and LNG/LNG-b, prepared as described above, were evaluated in male Sprague Dawley rats. The formulations that were tested included: • i. 200 mg/mL Cabotegravir and 40 mg/mL LNG—0.2 microns • ii. 200 mg/mL Cabotegravir 40 mg/mL LNG—1 micron • iii. 200 mg/mL Cabotegravir and 40 mg/mL LNGb—0.2 microns • iv. 200 mg/mL Cabotegravir 40 mg/mL LNGb—1 micron
Rats were administered co-suspensions either intramuscularly or subcutaneously at target doses of 10 mg/kg Cabotegravir and […] LNG or LNGb. […] FIG. 2 is a comparison of Levonorgestrel blood concentration pharmacokinetic profiles after intramuscular vs. subcutaneous administration. The average particle size of LNG for these formulations was 0.2 microns in diameter. […] Furthermore, FIG. 3 is a comparison of LNG and LNG-b co-formulated with Cab.

HIV-1 strains = settings: broad range of HIV-1 strains; cited from earlier work

Compound: C#C[C@]1(O)CC[C@H]2[C@@H]3CCC4=CC(=O)CC[C@@H]4[C@H]3CC[C@@]21CC [LNG, Levonorgestrel]
- Levonorgestrel blood concentration pharmacokinetic profile: intramuscular vs. subcutaneous administration [1]: does not appear to be a significant impact

Compound: C[C@H]1CO[C@@H]2Cn3cc(C(=O)NCc4ccc(F)cc4F)c(=O)c(O)c3C(=O)N12 [Cabotegravir, N-((2,4-Difluorophenyl)methyl)-6-hydroxy-3-methyl-5,7-dioxo-2,3,5,7,11,11a hexahydro(1,3)oxazolo(3,2-a)pyrido(1,2-d)pyrazine-8-carboxamide]
- potency (HIV-1 strains): subnanomolar

Compound: C#C[C@]1(OC(=O)CCC)CC[C@H]2[C@@H]3CCC4=CC(=O)CC[C@@H]4[C@H]3CC[C@@]21CC [LNGb, Levonorgestrel-butanoate]
- Cmax compared with LNG ([1]; sc): lower
- apparent half-life compared with LNG ([1]; sc): slightly longer

Reference: patent US20230321089A1, “COMBINATION OF CABOTEGRAVIR AND LEVONORGESTREL” (ViiV Healthcare Company, priority 2020, published 2023)
